Here are results for 15 molecules from US20250289789A1, “REVERSIBLE LYSINE COVALENT MODIFIERS OF CDK2 AND USES THEREOF” (Terremoto Biosciences, Inc., priority 2023, published 2025).

pIC50: −log10 of the molar value.

What all share (assay type): cell-based
Test [1] concerns the target T1, CDK2-NanoLuc fusion with CCNE1 in 293T or 293 cells (Homo sapiens, UniProt P24941).
T1 construct: host or cells: 293T (ATCC CRL-3216) or 293 (ATCC CRL-1573)
The experiment in a line: NanoBRET Target Engagement (TE) Intracellular Kinase Assay, CDK2/CCNE1. The following applies: NanoBRET TE intracellular kinase assay, 2-hour incubation, read-out: NanoBRET-CDK2/E1 IC50. (Bioluminescence resonance energy transfer reports proximity on the nanometre scale.)

Test [2] has as its target T2, CDK4-NanoLuc fusion with CCND1 in 293T or 293 cells (Homo sapiens, UniProt P11802).
T2 construct: host or cells: 293T (ATCC CRL-3216) or 293 (ATCC CRL-1573)
The experiment in a line: NanoBRET Target Engagement (TE) Intracellular Kinase Assay, CDK4/CCND1. The settings on record: NanoBRET TE intracellular kinase assay, 2-hour incubation, read-out: NanoBRET-CDK4/D1 IC50.

Test [3] addresses T3, CDK1-NanoLuc fusion with CCNB1 in 293T or 293 cells (Homo sapiens, UniProt P06493).
T3 construct: host or cells: 293T (ATCC CRL-3216) or 293 (ATCC CRL-1573)
Kind of test: NanoBRET Target Engagement (TE) Intracellular Kinase Assay, CDK1/CCNB1. The following applies: NanoBRET TE intracellular kinase assay, 2-hour incubation, read-out: NanoBRET-CDK1/B1 IC50. Here is the method: Inhibitory effects of compounds were measured in NanoBRET TE Intracellular Kinase Assay. 293T (ATCC; CRL-3216) or 293 (ATCC; CRL-1573) cell lines were maintained in 90% DMEM and 10% fetal bovine serum at 37° C., 5% CO2, and 95% relative humidity. Cells were trypsinized and resuspended in assay media (99% Opti-MEM I Reduced Serum Medium, no phenol red, and 1% fetal bovine serum). Cells were co-transfected with 1 μg/mL of CDK-NanoLuc Fusion Vector (Promega; NV2701 for CDK1, NV2781 for CDK2, NV2811 for CDK4, NV2841 for CDK6) and 1 μg/mL of the corresponding Cyclin Expression Vector (Promega; NV2601 for CCNB1, NV2641 for CCNE1, NV2621 for CCND1, NV2631 for CCND3) using FuGENE HD Transfection Reagent (Promega; E2311). 40 uL/well of cells with transfection mixture were seeded in 384-well plates at 1.25×10^5 to 2×10^5 cells/mL and incubated for 24 hours at 37° C., 5% CO2, and 95% relative humidity. On the next day, 100 nL of 100 μM NanoBRET Tracer K-10 (Promega; N2640) and 40 nL of 1000× test compounds prepared in DMSO were added to the cells in each well of 384-well plates for a 2-hour incubation at 37° C., 5% CO2, and 95% relative humidity. 20 uL/well of 3× Intracellular TE Nano-Glo Substrate/Inhibitor (Promega; N2162) were added to 384-well plates and incubated for 3 minutes at room temperature. NanoBRET signals (donor emission wavelength at 450 nm, acceptor emission wavelength at 610 nm) were measured using Envision plate reader (PerkinElmer). NanoBRET ratio was calculated by: BRET Ratio=raw signal for acceptor/raw signal for donor. Dose response curve normalized to DMSO control was plotted using four-parameter logistic model for IC50 calculation.

Test [4] has as its system Phospho-Rb Ser807/811 in OVCAR3 cells. The experiment in a line: OVCAR3 Phospho-Rb Ser807/811 HTRF assay. The settings on record: Homo sapiens, OVCAR-3, 1 h, OVCAR3 cells, Phospho-Rb Ser807/811 HTRF, 1 hour incubation; read-out: pRb-OVCAR3 IC50. Here is the method: Cells were trypsinized and resuspended in 1 mM hydroxyurea (Sigma; H8627), 90% RPMI and 10% fetal bovine serum. […] Dose response curve normalized to DMSO control was plotted using four-parameter logistic model for IC50 calculation.
On the technique in general: TR-FRET usually uses a lanthanide donor and a delayed reading to cut background.

T3 sequence (P06493 whole entry, the tested form may be a part): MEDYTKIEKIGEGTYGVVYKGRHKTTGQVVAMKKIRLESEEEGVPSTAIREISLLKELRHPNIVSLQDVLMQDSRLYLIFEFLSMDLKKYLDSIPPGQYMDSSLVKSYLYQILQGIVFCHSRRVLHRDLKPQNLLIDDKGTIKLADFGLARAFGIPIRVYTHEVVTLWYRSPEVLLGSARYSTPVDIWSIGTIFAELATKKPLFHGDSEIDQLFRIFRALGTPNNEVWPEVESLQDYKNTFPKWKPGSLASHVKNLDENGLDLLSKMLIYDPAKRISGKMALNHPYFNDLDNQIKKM
T3 sequence (P14635 whole entry partner, the tested form may be a part): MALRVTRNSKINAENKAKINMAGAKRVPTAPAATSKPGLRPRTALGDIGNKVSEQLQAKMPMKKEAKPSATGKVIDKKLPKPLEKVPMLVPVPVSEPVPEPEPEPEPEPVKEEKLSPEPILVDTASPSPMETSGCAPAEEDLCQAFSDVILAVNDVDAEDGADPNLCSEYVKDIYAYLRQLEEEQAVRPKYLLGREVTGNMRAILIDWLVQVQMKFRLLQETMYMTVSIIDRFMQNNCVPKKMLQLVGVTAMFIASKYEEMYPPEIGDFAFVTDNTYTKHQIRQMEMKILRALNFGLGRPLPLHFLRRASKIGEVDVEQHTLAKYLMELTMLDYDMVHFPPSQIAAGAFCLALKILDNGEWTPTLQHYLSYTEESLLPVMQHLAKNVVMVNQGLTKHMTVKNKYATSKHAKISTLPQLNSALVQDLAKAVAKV
T2 sequence (P11802 whole entry, the tested form may be a part): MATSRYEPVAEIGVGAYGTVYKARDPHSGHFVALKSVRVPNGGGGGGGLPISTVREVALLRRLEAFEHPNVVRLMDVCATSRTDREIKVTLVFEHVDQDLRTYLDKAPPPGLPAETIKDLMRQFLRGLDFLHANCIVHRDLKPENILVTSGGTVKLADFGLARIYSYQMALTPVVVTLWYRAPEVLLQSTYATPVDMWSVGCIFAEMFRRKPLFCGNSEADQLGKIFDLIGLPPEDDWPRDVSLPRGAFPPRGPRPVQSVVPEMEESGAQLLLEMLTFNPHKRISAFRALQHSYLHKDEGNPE
T2 sequence (P24385 whole entry partner, the tested form may be a part): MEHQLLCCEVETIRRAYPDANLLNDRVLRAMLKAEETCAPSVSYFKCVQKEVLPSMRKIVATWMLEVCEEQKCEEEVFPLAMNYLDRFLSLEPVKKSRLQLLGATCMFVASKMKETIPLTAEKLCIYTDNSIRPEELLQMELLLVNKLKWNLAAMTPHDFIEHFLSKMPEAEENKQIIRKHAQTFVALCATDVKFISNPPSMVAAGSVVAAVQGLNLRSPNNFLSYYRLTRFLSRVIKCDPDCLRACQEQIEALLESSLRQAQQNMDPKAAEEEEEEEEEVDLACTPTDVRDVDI

Consider `CC(C)NC(=O)O[C@@H]1CC[C@H](c2cc(NC(=O)c3cc(-c4ccc(O)c(C=O)c4)nn3C)n[nH]2)C1` [Compound 31, (1R,3S)-3-{5-[5-(3-formyl-4-hydroxyphenyl)-2-methylpyrazole-3-amido]-2H-pyrazol-3-yl}cyclopentyl N-isopropylcarbamate], for which the pIC50 was 8.26 in test [1], 5.51 in test [2], 7.69 in test [3] and 6.67 in test [4].

Turning to `CC(C)NC(=O)O[C@@H]1CC[C@H](c2cc(NC(=O)CCOc3cccc(O)c3C=O)n[nH]2)C1` [Compound 34, (1R,3S)-3-{5-[3-(2-formyl-3-hydroxyphenoxy)propanamido]-2H-pyrazol-3-yl}cyclopentyl N-isopropylcarbamate; trifluoroacetic acid], the pIC50 is 8.27 in test [1], 6.71 in test [2], 7.00 in test [3] and 6.26 in test [4].

For `CC(C)NC(=O)O[C@@H]1CC[C@H](c2cc(NC(=O)OCCc3cccc(O)c3C=O)n[nH]2)C1` [Compound 35, 2-(2-formyl-3-hydroxyphenyl)ethyl N-{5-[(1S,3R)-3-[(isopropylcarbamoyl)oxy]cyclopentyl]-1H-pyrazol-3-yl}carbamate; trifluoroacetic acid], the pIC50 in test [1] is 7.62; in test [2], 5.40; in test [3] it was 6.27; in test [4], 5.38.

As for `CC(C)NC(=O)O[C@@H]1CC[C@H](c2cc(NC(=O)COCc3cccc(O)c3C=O)n[nH]2)C1` [Compound 36, (1R,3S)-3-(5-{2-[(2-formyl-3-hydroxyphenyl)methoxy]acetamido}-2H-pyrazol-3-yl)cyclopentyl N-isopropylcarbamate; trifluoroacetic acid], the pIC50 in test [1] is 8.09; in test [2] it was 5.72; in test [3], 7.09; in test [4] it was 6.15.

Turning to `CC(=O)Nc1cc(C(=O)Nc2cc([C@H]3CC[C@@H](OC(=O)NC(C)C)C3)[nH]n2)ccc1C=O` [Compound 37, (1R,3S)-3-(3-(3-acetamido-4-formylbenzamido)-1H-pyrazol-5-yl)cyclopentyl isopropylcarbamate], the pIC50 in test [1] is 7.81; in test [2] it was 6.89; in test [3], 6.75; in test [4] it was 6.46.

`CC(=O)Nc1ccc(C(=O)Nc2cc([C@H]3CC[C@@H](OC(=O)NC(C)C)C3)[nH]n2)cc1C=O` [Compound 38, (1R,3S)-3-[5-(4-acetamido-3-formylbenzamido)-2H-pyrazol-3-yl]cyclopentyl N-isopropylcarbamate]: the pIC50 in test [1] is 7.97; in test [2], 6.24; in test [3], 6.58; in test [4] it was 6.27.

As for `CC(C)NC(=O)O[C@@H]1CC[C@H](c2cc(NC(=O)c3ccc(C=O)c4[nH]ncc34)n[nH]2)C1` [Compound 39, (1R,3S)-3-[5-(7-formyl-1H-indazole-4-amido)-2H-pyrazol-3-yl]cyclopentyl N-isopropylcarbamate], the pIC50 in test [1] was 7.61; in test [2], 6.32; in test [3], 6.45; in test [4], 5.95.

As for `CC(C)NC(=O)O[C@@H]1CC[C@H](c2cc(NC(=O)c3cc(C=O)c4[nH]ncc4c3)n[nH]2)C1` [Compound 40, (1R,3S)-3-(3-(7-formyl-1H-indazole-5-carboxamido)-1H-pyrazol-5-yl)cyclopentyl isopropylcarbamate], the pIC50 in test [1] is 7.61; in test [2] it was 5.84; in test [3] it was 6.56; in test [4] it was 6.10.

As to `CC(C)NC(=O)O[C@@H]1CC[C@H](c2cc(NC(=O)c3cc(-c4cccc(NS(C)(=O)=O)c4C=O)nn3C)n[nH]2)C1` [Compound 41, (1R,3S)-3-{5-[5-(2-formyl-3-methanesulfonamidophenyl)-2-methylpyrazole-3-amido]-2H-pyrazol-3-yl}cyclopentyl N-isopropylcarbamate; trifluoroacetic acid], the pIC50 is 8.27 in test [1], 5.51 in test [2], 7.69 in test [3] and 6.57 in test [4].

As to `CC(C)NC(=O)O[C@@H]1CC[C@H](c2cc(NC(=O)c3cc(-c4cc(F)cc(O)c4C=O)nn3C)n[nH]2)C1` [Compound 42, (1R,3S)-3-{5-[5-(5-fluoro-2-formyl-3-hydroxyphenyl)-2-methylpyrazole-3-amido]-2H-pyrazol-3-yl}cyclopentyl N-isopropylcarbamate; trifluoroacetic acid], the pIC50 in test [1] was 8.26; in test [2] it was 5.57; in test [3], 7.97; in test [4], 6.75.

With `CC(C)NC(=O)O[C@@H]1CC[C@H](c2cc(NC(=O)COc3ccc(F)c(O)c3C=O)n[nH]2)C1` [Compound 43, (1R,3S)-3-{5-[2-(4-fluoro-2-formyl-3-hydroxyphenoxy)acetamido]-2H-pyrazol-3-yl}cyclopentyl N-isopropylcarbamate; trifluoroacetic acid], the pIC50 was 7.57 in test [1], under 5.00 in test [2], 7.29 in test [3] and 6.67 in test [4].

Take `CC(C)NC(=O)O[C@@H]1CC[C@H](c2cc(NC(=O)c3cc(-c4cnccc4C=O)nn3C)n[nH]2)C1` [Compound 44, (1R,3S)-3-(3-(3-(4-formylpyridin-3-yl)-1-methyl-1H-pyrazole-5-carboxamido)-1H-pyrazol-5-yl)cyclopentyl isopropylcarbamate; trifluoroacetic acid]: the pIC50 in test [1] is 8.20; in test [2] it was 5.81; in test [3], 6.77; in test [4], 6.31.

On to `CC(C)NC(=O)O[C@@H]1CC[C@H](c2cc(NC(=O)COc3cc(C#N)cc(O)c3C=O)n[nH]2)C1` [Compound 47, 1R,3S)-3-(3-(2-(5-cyano-2-formyl-3-hydroxyphenoxy)acetamido)-1H-pyrazol-5-yl)cyclopentyl isopropylcarbamate], for which the pIC50 in test [1] was 7.00; in test [2], 5.03; in test [3] it was 6.65; in test [4] it was 5.93.

`COc1cc(O)c(C=O)c(-c2cc(C(=O)Nc3cc([C@H]4CC[C@@H](OC(=O)NC(C)C)C4)[nH]n3)n(C)n2)c1` [Compound 48, (1R,3S)-3-{5-[5-(2-formyl-3-hydroxy-5-methoxyphenyl)-2-methylpyrazole-3-amido]-2H-pyrazol-3-yl}cyclopentyl N-isopropylcarbamate; trifluoroacetic acid]: the pIC50 in test [1] is 8.64; in test [2], 6.07; in test [3] it was 7.97; in test [4], 6.90.

With `Cc1nc(-c2cccc(O)c2C=O)sc1C(=O)Nc1cc([C@H]2CC[C@@H](OC(=O)NC(C)C)C2)[nH]n1` [Compound 53, (1R,3S)-3-(3-(2-(2-formyl-3-hydroxyphenyl)-4-methylthiazole-5-carboxamido)-1H-pyrazol-5-yl)cyclopentyl isopropylcarbamate], the pIC50 in test [1] is 8.03; in test [2], 5.44; in test [3], 7.66; in test [4], 6.44.
